Test results from PubChem BioAssay AID1963441 (Molecular Pharmacology Branch, DTP, NCI, 2024).
pIC50: −log10 of the molar value. Where “and” joins values, the source holds several entries; their conditions need not be identical. Equal entries are not always repeated.

System: NCI-H1876 complex spheroid growth, % test/control
Test: Anticancer human tumor NCI-H1876 cell line growth inhibition [Asc];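 further: compound exposure lasted 7 days starting three days after seeding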;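 on viability, T/C: 100% = DMSO vehicle control wells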
Conditions: for viability, T/C: stronger effect = lower value
In short: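 Complex solid-tumor spheroids incorporating human endothelial and mesenchymal stem cells received single agents or combinations over half-log dilution ranges anchored to clinical Cmax.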

[1] = curve of first compound, second compound 0.00316 µM
[2] = curve of first compound, second compound 0.01 µM
[3] = curve of first compound, second compound 0.0316 µM
[4] = curve of first compound, second compound 0.1 µM
[5] = curve of first compound, second compound 0.316 µM
[6] = curve of first compound, second compound 1 µM
[7] = second compound 0.00316 µM, first compound 0.00316 µM
[8] = second compound 0.00316 µM, first compound 0.01 µM
[9] = second compound 0.00316 µM, first compound 0.0316 µM
[10] = second compound 0.00316 µM, first compound 0.1 µM
[11] = second compound 0.00316 µM, first compound 0.316 µM
[12] = second compound 0.00316 µM, first compound 1 µM
[13] = second compound 0.01 µM, first compound 0.00316 µM
[14] = second compound 0.01 µM, first compound 0.01 µM
[15] = second compound 0.01 µM, first compound 0.0316 µM
[16] = second compound 0.01 µM, first compound 0.1 µM
[17] = second compound 0.01 µM, first compound 0.316 µM
[18] = second compound 0.01 µM, first compound 1 µM
[19] = second compound 0.0316 µM, first compound 0.00316 µM
[20] = second compound 0.0316 µM, first compound 0.01 µM
[21] = second compound 0.0316 µM, first compound 0.0316 µM
[22] = second compound 0.0316 µM, first compound 0.1 µM
[23] = second compound 0.0316 µM, first compound 0.316 µM
[24] = second compound 0.0316 µM, first compound 1 µM
[25] = second compound 0.1 µM, first compound 0.00316 µM
[26] = second compound 0.1 µM, first compound 0.01 µM
[27] = second compound 0.1 µM, first compound 0.0316 µM
[28] = second compound 0.1 µM, first compound 0.1 µM
[29] = second compound 0.1 µM, first compound 0.316 µM
[30] = second compound 0.1 µM, first compound 1 µM
[31] = second compound 0.316 µM, first compound 0.00316 µM
[32] = second compound 0.316 µM, first compound 0.01 µM
[33] = second compound 0.316 µM, first compound 0.0316 µM
[34] = second compound 0.316 µM, first compound 0.1 µM
[35] = second compound 0.316 µM, first compound 0.316 µM
[36] = second compound 0.316 µM, first compound 1 µM
[37] = second compound 1 µM, first compound 0.00316 µM
[38] = second compound 1 µM, first compound 0.01 µM
[39] = second compound 1 µM, first compound 0.0316 µM
[40] = second compound 1 µM, first compound 0.1 µM
[41] = second compound 1 µM, first compound 0.316 µM
[42] = second compound 1 µM, first compound 1 µM

O=C(c1ccc(F)c(F)c1Nc1ccc(I)cc1F)N1CC(O)([C@@H]2CCCCN2)C1 + CNC(C)C(=O)NC1CN(S(=O)(=O)c2cccc(S(=O)(=O)N3CCC4CCC(C(=O)NC(c5ccccc5)c5ccccc5)N4C(=O)C(NC(=O)C(C)NC)C3)c2)CCC2CCC(C(=O)NC(c3ccccc3)c3ccccc3)N2C1=O
pIC50 [1]: < 6.00 | pIC50 [2]: < 6.00 | pIC50 [3]: < 6.00 | pIC50 [4]: < 6.00 | pIC50 [5]: < 6.00 | pIC50 [6]: < 6.00 | viability, T/C [7]: 109% | viability, T/C [8]: 87.3% | viability, T/C [9]: 114% | viability, T/C [10]: 80.5% | viability, T/C [11]: 80.5% | viability, T/C [12]: 70.6% | viability, T/C [13]: 110% | viability, T/C [14]: 93.6% | viability, T/C [15]: 96.2% | viability, T/C [16]: 82.3% | viability, T/C [17]: 90.8% | viability, T/C [18]: 81.7% | viability, T/C [19]: 98.5% | viability, T/C [20]: 90.3% | viability, T/C [21]: 102% | viability, T/C [22]: 87.3% | viability, T/C [23]: 85.5% | viability, T/C [24]: 83.2% | viability, T/C [25]: 106% | viability, T/C [26]: 103% | viability, T/C [27]: 96.3% | viability, T/C [28]: 89.8% | viability, T/C [29]: 86.3% | viability, T/C [30]: 90.5% | viability, T/C [31]: 106% | viability, T/C [32]: 90.1% | viability, T/C [33]: 89.9% | viability, T/C [34]: 96.9% | viability, T/C [35]: 97% | viability, T/C [36]: 72.3% | viability, T/C [37]: 107% | viability, T/C [38]: 93.7% | viability, T/C [39]: 99.2% | viability, T/C [40]: 97.4% | viability, T/C [41]: 88% | viability, T/C [42]: 69.8%

CCN1CCN(Cc2ccc(Nc3ncc(F)c(-c4cc(F)c5nc(C)n(C(C)C)c5c4)n3)nc2)CC1 + CNC(C)C(=O)NC1CN(S(=O)(=O)c2cccc(S(=O)(=O)N3CCC4CCC(C(=O)NC(c5ccccc5)c5ccccc5)N4C(=O)C(NC(=O)C(C)NC)C3)c2)CCC2CCC(C(=O)NC(c3ccccc3)c3ccccc3)N2C1=O
pIC50 [1]: < 6.00 | pIC50 [2]: < 6.00 | pIC50 [3]: < 6.00 | pIC50 [4]: < 6.00 | pIC50 [5]: < 6.00 | pIC50 [6]: < 6.00 | viability, T/C [7]: 104% | viability, T/C [8]: 89.2% | viability, T/C [9]: 103% | viability, T/C [10]: 93.9% | viability, T/C [11]: 125% | viability, T/C [12]: 128% | viability, T/C [13]: 105% | viability, T/C [14]: 104% | viability, T/C [15]: 102% | viability, T/C [16]: 99.8% | viability, T/C [17]: 126% | viability, T/C [18]: 132% | viability, T/C [19]: 105% | viability, T/C [20]: 93.1% | viability, T/C [21]: 102% | viability, T/C [22]: 108% | viability, T/C [23]: 129% | viability, T/C [24]: 136% | viability, T/C [25]: 100% | viability, T/C [26]: 102% | viability, T/C [27]: 104% | viability, T/C [28]: 109% | viability, T/C [29]: 118% | viability, T/C [30]: 131% | viability, T/C [31]: 110% | viability, T/C [32]: 93.1% | viability, T/C [33]: 101% | viability, T/C [34]: 104% | viability, T/C [35]: 126% | viability, T/C [36]: 140% | viability, T/C [37]: 102% | viability, T/C [38]: 105% | viability, T/C [39]: 109% | viability, T/C [40]: 107% | viability, T/C [41]: 129% | viability, T/C [42]: 122%

Cn1ncnc1[C@H]1c2n[nH]c(=O)c3cc(F)cc(c23)N[C@@H]1c1ccc(F)cc1
viability, T/C (compound 0.000316 µM): 93.5% and 106% and 102% | viability, T/C (compound 0.001 µM): 90.9% and 86.1% and 110% | viability, T/C (compound 0.00316 µM): 95.7% and 88.1% and 105% | viability, T/C (compound 0.01 µM): 102% and 96.1% and 94.6% | viability, T/C (compound 0.0316 µM): 98.4% and 99.3% and 105% | viability, T/C (compound 0.1 µM): 86% and 101% and 97.6% | pIC50 (curve of compound): < 7.00
